In patent US12280026B2, “Use of repirinast in the prophylaxis or treatment of renal fibrosis or kidney disease” (ALGERNON PHARMACEUTICALS INC., priority 2018, dated 2025):
Entries after “also recorded” stand apart in the source; their conditions may differ. Marks after values point to notes of the source that are not given here.

Key:
Type in all cases: in vivo
[1] = tested on: C57BL/6 mice with UUO surgical ligation; assay: Example 1: UUO mice, renal function evaluation (plasma BUN, creatinine); conditions: for BUN in comparison to control groups, in words / Reduction in levels of BUN compared to vehicle, significance in words: Example 1; for BUN in comparison to control groups, in words: UUO, male C57BL/6 mice, PO QD days 1-14, doses of Table 1; for Reduction in BUN compared to vehicle, in words, post-test not stated: Example 1 text and conclusions, Bemithyl 200, Repirinast 30, Bromantane 20, Telmisartan 5 mg/kg PO QD; for Reduction in levels of BUN compared to vehicle, significance in words: p<0.05, Tamhane post-test, Repirinast 30, Bemithyl 200, Bromantane 20 mg/kg PO QD
Experimental: (§1) Male 9-12 week old C57BL/6 mice of 23-25 grams body weight were used. All mice were acclimated for a minimum of 5 days prior to the start of the study and housed individually in microisolators throughout the study in a 12:12 light-dark cycle on a standard maintenance mouse chow diet (Harlan Teklad 2018) with food and water given ad libitum. Prior to surgery, all mice were weighed for baseline body weight.
(§2) The UUO surgical intervention was performed according to previously described methods known in the art (Le Meur Y et al., Macrophage accumulation at a site of renal inflammation is dependent on the M-CSF/c-fms pathway, J Leukocyte Biol., 72:530-537; 2002).
(§3) All mice were first anesthetized by intraperitoneal injection with a rodent cocktail (ketamine 10 mg/mL and Xyaline 1 mg/mL) in normal saline (10 μL/g body weight). Pedal reflex and movement of the vibrissae were used to determine the state of unconsciousness. A state of unconsciousness was confirmed after a period of about 5 minutes in all animals. All mice were then shaved on the left side of the abdomen. The shaved area was first swabbed with iodine and then swabbed with alcohol. A vertical incision was made through the skin with a #22 scalpel and the skin was then retracted. A further incision of about 2.5 cm was then made through the peritoneum avoiding any major blood vessels. The peritoneum was then retracted and the left kidney was exposed.
(§4) The left kidney was then brought to the surface by hooking the ureter directly beneath the kidney with sterile forceps and gently manipulating the kidney upward. The ureter was ligated at two points directly below the kidney with 5-0 surgical silk with excess suture cut away and discarded post-ligation. The kidney was then gently placed back to its correct anatomical position and the abdomen was lavaged with 1 mL sterile saline to replenish fluid loss. The peritoneum and then skin were sutured with 5-0 Mersilene, and the incision site was gently wiped with iodine. All mice were then placed individually in clean cages that were set on top of a thermal blanket until recovery at about 30-60 minutes later. In some examples, sham surgery was performed as a control by following all steps of the UUO surgical intervention procedure except ligation.
(§5) Following surgery, the mice were divided into 14 individual study groups of 8 mice each and, following post-surgical recovery, administered a once-daily oral treatment for 14 days. The mice in 12 of the 14 study groups (hereafter known as “treatment groups”) had all received the UUO surgical ligation and were treated individually with a distinct pharmacologic compound as set out in Table 1. The mice in 2 of the 14 study groups were treated individually with a pharmaceutically acceptable vehicle with no active ingredient. The pharmaceutically acceptable vehicle in all groups was 0.5% carboxymethyl cellulose (CMC). All mice were sacrificed with CO2 on post-surgical day 15.
The dose selected for the animal studies was determined by taking the maximum known human daily dose, dividing by the average weight of an adult (˜60-70 kg) to get a human mg/kg dose. Then that number was multiplied by 12 to convert to a mouse dose based on conventional dosing tables. See Nair and Jacob, J Basic Clin Pharm March 2016-May 2016, 7(2):27-31.
Serum collection: A blood sample was then collected from all mice and plasma analyzed for urea nitrogen and creatinine. Plasma was stored at −80° C. for possible future analysis.
Renal Function Evaluation: Renal function and disease progression was evaluated by BUN (blood urea nitrogen) as previously described. The BUN of each study group consisted of the BUN average of all mice in each study group.

[2] = tested on: C57BL/6 mice with UUO surgical ligation; assay: Example 1: UUO mice, renal fibrosis evaluation (Sirius Red histology score); conditions: Bemithyl 200, Emoxypine 160, Suplatast Tosylate 60, Udenafil 40, Telmisartan 5 mg/kg PO QD
Experimental: as §1, §2, §3, §4, §5
The dose selected for the animal studies was determined by taking the maximum known human daily dose, dividing by the average weight of an adult (˜60-70 kg) to get a human mg/kg dose. […]
Histopathology: Formalin-fixed kidney cross-section samples were subjected histopathological scoring with Sirius Red staining, and imaged at a magnification of ×20, using standard techniques. All three sections were stained and evaluated. […] The presence of interstitial damage and severity score was assessed according to the following criteria: 0=normal, 1=light, 2=moderate, 3=severe. […]

[3] = tested on: C57BL/6 mice with UUO surgical ligation; assay: Example 2: UUO mice, renal fibrosis evaluation (Sirius Red histology score); conditions: for Level of kidney fibrosis / histology score compared to vehicle or other agents, in words: mg/kg PO QD: Telmisartan 3, Bemithyl 200, Repirinast 30, Telmisartan+Bemithyl 3+200, Telmisartan+Repirinast 3+30, Cenicriviroc 40, Bromantane 40; for Histology Score: Sirius Red, 0=normal, 1=light, 2=moderate, 3=severe, group mean; for Histology Score / Reduction of fibrosis (%) (versus vehicle): UUO, female C57BL/6 mice, PO QD days 1-14; for Reduction of fibrosis (%) (versus vehicle): from histology score
Experimental: In this example, healthy young female C57BL/6 mice were used for the study. At the commencement of the study, mice were between 9-12 weeks of age, weighing 23-25 g. All the mice were obtained from Charles River Laboratories.
The mice were maintained in a controlled environment with a temp 70-72° F., humidity 30-70%, with a photo cycle of 12 hours of light and 12 hours of dark. They were provided with Harlan Teklad 2018 standard maintenance mouse chow diet and drinking water ad libitium.
After five days of acclimatization, the mice were grouped according to their body weight. There were ten groups of ten mice each. Nine groups of ten mice each underwent UUO as described above and the other group of ten mice underwent a sham procedure to serve as a no-surgery control.
Following surgery, the mice were divided into 10 individual study groups of 10 mice each and, following post-surgical recovery, administered a once-daily oral treatment for 14 days. The mice in 8 of the 10 study groups had all received the UUO surgical ligation and were treated individually with a distinct pharmacologic compound as set out in Table 6. The mice in 2 of the 10 study groups were treated individually with a pharmaceutically acceptable vehicle with no active ingredient. The pharmaceutically acceptable vehicle in all groups was 0.5% carboxymethyl cellulose (CMC). All mice were sacrificed with CO2 on post-surgical day 15.
The dose selected for the animal studies was determined by taking the maximum known human daily dose, dividing by the average weight of an adult (˜60-70 kg) to get a human mg/kg dose. That number was multiplied by 12 to convert to a mouse dose based on conventional dosing tables. See Nair and Jacob, J Basic Clin Pharm March 2016-May 2016, 7(2):27-31.
Histopathology: Formalin-fixed kidney cross-section samples were subjected histopathological scoring with Sirius Red staining, and imaged at a magnification of ×20, using standard techniques. All three sections were stained and evaluated. The analysis was performed by a board-certified veterinarian pathologist. The presence of interstitial damage and severity score was assessed according to the following criteria: 0=normal; 1=light; 2=moderate; 3=severe.
The data are presented as the mean obtained from Microsoft Excel or GraphPad Prism version 5.00 for Windows (GraphPad Software, San Diego California USA). Data were analyzed using two-way ANOVA using Bonferroni and Tamhane post-tests. Differences between groups were considered significant at p<0.05.
Renal Fibrosis Evaluation: Renal fibrosis and interstitial damage was evaluated by histochemical staining of renal cross-sections with Sirius Red as previously described. The Histology Score of each study group consisted of the histology score average of all mice in each study group.

[4] = mg/kg: Telmisartan 3, Bemithyl 200, Repirinast 30, Telmisartan+Bemithyl 3+200, Telmisartan+Repirinast 3+30, Cenicriviroc 40, Bromantane 40

| SMILES | BUN in comparison to control groups, in words [1] | Reduction in BUN compared to vehicle, in words, post-test not stated [1] | Reduction in levels of BUN compared to vehicle, significance in words [1] | Kidney fibrosis / Histology Score, significance and comparison in words [2] | Level of kidney fibrosis / histology score compared to vehicle or other agents, in words ([3]; Example 2) | Histology Score [3, 4] | Reduction of fibrosis (%) (versus vehicle) [3, 4] | Level of kidney fibrosis compared to vehicle, in words ([3]; Example 2, Repirinast 90 mg/kg PO QD) | Histology Score ([3]; Repirinast 90 mg/kg) | Reduction of fibrosis (%) (versus vehicle) ([3]; Repirinast 90 mg/kg) |
| --- | --- | --- | --- | --- | --- | --- | --- | --- | --- | --- |
| CCSc1nc2ccccc2[nH]1 [Bemithyl, 2-Ethylsulfanyl-1H-benzoimidazole] | less renal dysfunction and disease progression than the positive control treatment; also recorded: decreased in comparison to the sham surgery control group; also recorded: most improved renal function of all | reduction in BUN compared to vehicle | significant reductions in the levels of BUN | decreased in comparison to the positive control treatment group; also recorded: significant reductions in kidney fibrosis; also recorded: significant improvement in kidney fibrosis | significantly reduce the level of kidney fibrosis compared to vehicle; also recorded: significant improvement in kidney fibrosis | 1.15** | 52 |  |  |  |
| Brc1ccc(NC2C3CC4CC(C3)CC2C4)cc1 (stereo not drawn) [Bromantane, N-(4-Bromophenyl)adamantan-2-amine] | less renal dysfunction and disease progression than the positive control treatment; also recorded: decreased in comparison to the sham surgery control group | significant reductions in BUN compared to vehicle | significant reductions in the levels of BUN |  | significantly reduce the level of kidney fibrosis compared to vehicle; also recorded: greatest numerical reduction in the histology score; also recorded: superior to both Telmisartan; also recorded: significant improvement in kidney fibrosis; also recorded: highest reductions in both fibrosis and BUN levels | 1.02*# | 58 |  |  |  |
| Cc1ccc2c([nH]c(=O)c3c(=O)cc(C(=O)OCCC(C)C)oc32)c1C [Repirinast, 3-methylbutyl 7,8-dimethyl-4,5-dioxo-5,6-dihydro-4H-pyrano[3,2-c]quinoline-2-carboxylate] | less renal dysfunction and disease progression than the positive control treatment; also recorded: decreased in comparison to the sham surgery control group | significant reductions in BUN compared to vehicle | significant reductions in the levels of BUN |  | statistically insignificant improvements | 1.90 | 21 | significantly reduce the level of kidney fibrosis compared to vehicle; also recorded: significant improvement in kidney fibrosis | 1.19*# | 51 |
| CCCc1nc2c(C)cc(-c3nc4ccccc4n3C)cc2n1Cc1ccc(-c2ccccc2C(=O)O)cc1 [Telmisartan, 2-(4-{[4-Methyl-6-(1-methyl-1H-1,3-benzodiazol-2-yl)-2-propyl-1H-1,3-benzodiazol-1-yl]methyl}phenyl)benzoic acid] |  | did not show a significant reduction; also recorded: the former was not statistically significant |  | significant reduction; also recorded: reduction in BUN levels and fibrosis | statistically insignificant improvements; also recorded: did not show significant reductions | 1.62*# | 33 |  |  |  |
